Values of other authors in patent US9068996B2, “Analyte detection method” (SPHERE MEDICAL LIMITED, priority 2010, dated 2015).
Read-outs that look alike come from different tables or passages of the source.

Conditions: for average blood propofol concentration required: patients

## CC(C)c1cccc(C(C)C)c1O [propofol, 2,6-di-isopropylphenol]
After surgery, awake
  Blood propofol concentration at which 50% of patients (EC50) were awake: 1.07 µg/mL
After surgery, oriented
  Blood propofol concentration at which 50% of patients (EC50) were oriented: 0.95 µg/mL
Major surgery
  average blood propofol concentration required: 4.05 ± 1.01 µg/mL
non-major surgery
  average blood propofol concentration required: 2.97 ± 1.07 µg/mL
